# Data: patent publication US20220024992A1, “COMPOSITIONS AND METHODS COMPRISING LYSOCINS AS BIOENGINEERED ANTIMICROBIALS FOR USE IN TARGETING GRAM-NEGATIVE BACTERIA” (The Rockefeller University, priority 2018, published 2022)
# “And” between values parts separate entries of the source, which are not always exact repeats. Equal entries are not always repeated.
# Columns and labels:
# [1] = tested on: pseudomonal PG (autoclaved P. aeruginosa); assay: Muralytic plate lysis assay on autoclaved Pseudomonas; type: biochemical; details: 25 pmol spotted
# P. aeruginosa strain 453 [2] = assay: Plate lysis assay using viable Pseudomonas; type: cell-based
# Procedure: For determining muralytic activity, 25 pmol of each purified protein sample was spotted on 0.75% (wt/vol) agarose embedded with autoclaved P. aeruginosa in 50 mM Tris-HCl, pH 7.5. […] For elucidating antipseudomonal activity towards viable bacteria, 0.01-400 pmol of each purified protein sample was spotted on 0.75% (wt/vol) agarose comprising P. aeruginonsa strain 453 at an initial concentration of 5×10^6 CFU/ml in either CAA medium or CAA:HuS (1:1; HuS from pooled human male AB plasma, Sigma-Aldrich). Growth inhibition zones observed after 24 h incubation at 37° C. correspond to antipseudomonal activity. Buffer was spotted as a negative control.
# P. aeruginosa strain 453 [3] = assay: Dose-response cell viability assay (killing kinetics); type: cell-based; details: for reduction in bacterial viability: 0.1-100 μg/ml, CAA medium with EDDHA
# Procedure: For the 12 h experiments, 0.01-100 μg/ml of PyS2-GN4 was incubated statically at 37° C. with P. aeruginosa strain 453 at 10^6 CFU/ml in CAA medium with 0.5 mg/ml EDDHA (Complete Green Company). At 2 h increments, an aliquot was removed from each sample, serial diluted and plated on CAA agar to determine viable bacterial counts. For the 24 h experiments, lysocin at 0.1-100 μg/ml was incubated statically at 37° C. with P. aeruginosa strain 453 at 10^6 CFU/ml in either CAA medium or CAA:HuS (1:1) with EDDHA. After 24 h, the samples were serial diluted and plated on CAA agar to assess bacterial viability. An untreated control was used for each data set. All samples were investigated in duplicate.
# P. aeruginosa strain 453 [4] = assay: Lysocin thermal stability (residual antipseudomonal activity after heating); type: physicochemical; details: 30 min incubation in PBS, then 50 μg/ml for 4 h at 37° C.
# Procedure: FIG. 7. Lysocin thermal stability. PyS2-GN4 was incubated in phosphate buffered saline (PBS) for 30 min at temperatures ranging from 4° C. to 80° C. After cooling on ice, each sample at 50 μg/ml was incubated statically with P. aeruginosa strain 453 for a total of 4 h at 37° C. The average residual antipseudomonal activity of each sample was equated to the log10 decrease in viable bacterial cells when compared to the untreated control. All error bars correspond to ±SEM of triplicate experiments.
# P. aeruginosa strains = assay: MIC and MBC, modified CLSI broth microdilution, CAA medium; type: cell-based
# Procedure: (§1) The MIC and MBC values were calculated using a modified version of the broth microdilution assay as previously described by the Clinical and Laboratory Standards Institute (CLSI) (45). The specific modifications were to the bacterial concentration and growth medium used. […] CAA medium was used for Gram-negative bacteria to simulate low iron conditions. Alternatively, MHB was used for Gram-positive bacteria due to their inability to grow in CAA medium. Bacterial growth was assessed by measuring the OD600 nm using a SpectraMax M5 microplate reader (Molecular Devices). The MIC was defined as the lowest antimicrobial concentration that inhibits bacterial growth. To determine the MBC, the contents from each well originating from the MIC microtiter plate was plated on CAA agar to quantitate bacterial viability. The MBC was defined as the lowest antimicrobial concentration required to kill ≥99.9% of the initial bacterial inoculum. Growth and sterility controls were included.
# B. cereus RSVF1 = assay: MIC, modified broth microdilution, MHB; type: cell-based
# Procedure: as §1
# E. faecium EFSK-2 = assay: MIC, modified broth microdilution, MHB; type: cell-based
# Procedure: as §1
# S. aureus NR-45946 = assay: MIC, modified broth microdilution, MHB; type: cell-based
# Procedure: as §1
# S. pyogenes D471 = assay: MIC, modified broth microdilution, MHB; type: cell-based
# Procedure: as §1
# A. baumaneii ATCC 17978 = assay: MIC, modified broth microdilution, CAA medium; type: cell-based
# Procedure: as §1
# E. cloacae NR-50391 = assay: MIC, modified broth microdilution, CAA medium; type: cell-based
# Procedure: as §1
# E. coli ATCC 25922 = assay: MIC, modified broth microdilution, CAA medium; type: cell-based
# Procedure: as §1
# K. pneumoniae NR-41916 = assay: MIC, modified broth microdilution, CAA medium; type: cell-based
# Procedure: as §1
# P. aeruginosa strain 453 [5] = assay: Transmission electron microscopy of lysocin-treated bacteria; type: cell-based; details: 50 μg/ml
# Procedure: At 0, 30 and 60 min, an aliquot was removed and fixed with 100 mM sodium cacodylate, pH 7.4, containing 4% (vol/vol) paraformaldehyde and 2% (vol/vol) glutaraldehyde. TEM images were obtained by The Rockefeller University Electron Microscopy Resource Center.
# P. aeruginosa strain 453 [6] = assay: Endotoxin release (chromogenic LAL assay); type: cell-based; details: after 4 h treatment, 0.2× and 5×MIC
# Procedure: Endotoxin Release P. aeruginosa strain 453 at 10^6 CFU/ml was treated with 0.2× and 5×MIC PyS2-GN4, colistin, meropenem or tobramycin in CAA medium for either 1 or 4 h at 37° C. The samples were subsequently centrifuged at 2,000×g for 10 min. The supernatant was collected and passed through a 0.2 μm syringe filter. Endotoxin concentration in the filtered supernatant was quantitated using the ToxinSensor Chromogenic LAL Endotoxin Assay Kit (GenScript). All data was depicted as the mean±SEM of duplicate experiments.
# P. aeruginosa strain 453 [7] = assay: Murine model of bacteremia; type: in vivo, mice; details: for protected from death (survival over 10 days): 3 h post-infection
# Procedure: A murine model of bacteremia using P. aeruginosa was adapted from previous studies (46-50). Briefly, male 6-week-old C57BL/6 mice (Charles River Laboratories) were IP infected with 10^8 P. aeruginosa strain 453 and then IP treated 3 h post-infection with a single dosage of either PBS or PyS2-GN4 at 2.5-25 mg/kg. Survival was monitored for 10 days. The collective results were obtained from four independent experiments and analyzed by Kaplan-Meier survival curves using GraphPad Prism. The Rockefeller University Institutional Animal Care and Use Committee approved all mouse experiments (protocol 17025).
# P. aeruginosa strain 453 [8] = assay: Cell viability assays with 0.5 μM antimicrobial; details: iron-chelated CAA medium
# Procedure: P. aeruginosa strain 453 were grown under iron-depleted conditions (see Bacterial Strains and Growth Conditions). The bacteria were harvested, washed and resuspended in fresh CAA medium with 0.5 mg/ml EDDHA. Using a 96-well flat-bottomed microtiter plate, the bacteria at ˜10^6 CFU/ml were incubated statically at 37° C. with either growth medium only (untreated control) or 0.5 μM purified antimicrobial. A 2 h incubation was used for the single time point experiments, whereas a 4 or 6 h incubation was used for the multiple time point assays. At various time points, an aliquot was removed from each sample, serially diluted and plated on CAA agar. After incubating the agar plates for up to 48 h at 37° C., colonies were counted in order to quantitate the CFU/ml concentration of surviving bacterial cells. Modifications were introduced to the aforementioned cell viability assay protocol for the experiment using P. aeruginosa grown in the presence of varying free iron concentrations. First, P. aeruginosa strain 453 were grown using iron-depleted or iron-rich conditions (CAA medium supplemented with 100 μM FeSO4) at 37° C. with aeration for a total of 16-18 h and subsequently assayed for lysocin sensitivity in PBS, pH 7.4. For the experiment analyzing lysocin activity in the presence of lung surfactant or serum, P. aeruginosa were incubated with or without lysocin in beractant ([sequence]; Abbvie) or HuS diluted 1:1 with 20 mM sodium phosphate, pH 7.0.
substance,measurement,setting,value
"PyS2-GN4: lysocin: PyS2 domains I-III, with domain IV (aa 559-689) deleted and replaced by the GN4 lysin (aa 1-144); 76 kDa",muralytic activity (clearing zones) on autoclaved P. aeruginosa,[1],degraded Pseudomonas PG
same,amount spotted at which activity could be observed,P. aeruginosa strain 453 [2]; 50% HuS,0.13 pmol
same,amount spotted at which antipseudomonal activity was displayed,P. aeruginosa strain 453 [2]; growth medium (CAA),0.64 pmol
same,reduction in bacterial viability,P. aeruginosa strain 453 [3]; 2 h,~2 log10
same,reduction in bacterial viability,P. aeruginosa strain 453 [3]; 4 h,~3 log10
same,reduction in bacterial viability,P. aeruginosa strain 453 [3]; 12 h,~4 log10
same,lysocin concentration that sterilized the bacterial culture,"P. aeruginosa strain 453 [3]; 24 h, CAA medium and 50% HuS",10 μg/ml and 132 nM
same,concentration at which bactericidal,P. aeruginosa strain 453 [3]; after 4 h,0.1 µg/mL
same,temperature at which bactericidal activity was fully retained,P. aeruginosa strain 453 [4],45 °C
same,MIC,"P. aeruginosa strains; strain 452, FpvA type I",4 µg/mL
same,MBC,"P. aeruginosa strains; strain 453, FpvA type I",0.25 µg/mL
same,MIC,"P. aeruginosa strains; strain 453, FpvA type I",0.25 µg/mL
same,MIC,"P. aeruginosa strains; strain MDR-M-3, FpvA type I",2 µg/mL
same,MIC,"P. aeruginosa strains; strain PAO1, FpvA type I",2 µg/mL
same,MIC values,"P. aeruginosa strains; towards strain PAO1 and the 452, 453 and MDR-M-3 clinical isolates",≤ 4 µg/mL
same,MIC,B. cereus RSVF1,>256 µg/mL
same,MIC,E. faecium EFSK-2,>256 µg/mL
same,MIC,S. aureus NR-45946,>256 µg/mL
same,MIC,S. pyogenes D471,>256 µg/mL
same,MIC,A. baumaneii ATCC 17978,>256 µg/mL
same,MIC,E. cloacae NR-50391,>256 µg/mL
same,MIC,E. coli ATCC 25922,>256 µg/mL
same,MIC,K. pneumoniae NR-41916,>256 µg/mL
same,bacterial morphology by TEM,P. aeruginosa strain 453 [5]; 30 min post-treatment,transitioned from rod-shaped to a more spherical morphology
same,bacterial morphology by TEM,P. aeruginosa strain 453 [5]; 60 min post-treatment,"intact, nonviable cells either lacking or with noticeably reduced cytoplasmic content"
same,"endotoxin release, fold less than meropenem and tobramycin",P. aeruginosa strain 453 [6],~100 fold
same,protected from death (survival over 10 days),P. aeruginosa strain 453 [7]; 2.5 mg/kg IP,73%
same,protected from death (survival over 10 days),P. aeruginosa strain 453 [7]; 5 mg/kg IP,80%
same,protected from death (survival over 10 days),P. aeruginosa strain 453 [7]; 12.5 mg/kg IP,93%
same,protected from death (survival over 10 days),P. aeruginosa strain 453 [7]; 25 mg/kg IP,100%
same,Pseudomonas in organs of surviving mice,P. aeruginosa strain 453 [7]; day 10,did not contain detectable Pseudomonas
same,decrease in pseudomonal viability,P. aeruginosa strain 453 [8]; 3 h,3.1 log10
same,viable bacterial cells relative to limit of detection (10 CFU/ml),P. aeruginosa strain 453 [8]; duration of the experiment (6 h),incapable of lowering the number of viable bacterial cells to the limit of detection
